# Measured values: patent EP4631504A1, “COMPOSITION FOR PREVENTION OR TREATMENT OF FABRY'S DISEASE” (Korea Advanced Institute of Science and Technology, priority 2022, dated 2024)
# Entries after “also recorded” stand apart in the source; their conditions may differ.
# Columns and labels:
# [1] = tested on: FD mice (Gla^-/-/TSP1^Tg); experiment: Heat tolerance test (paw withdrawal latency) in FD mice; format: in vivo; details: oral, 10 or 30 mg/kg/day for 6 months
# [2] = tested on: p-SMAD2, SMAD2, TSP1, KDR, eNOS; experiment: Western blot analysis of p-SMAD2, TSP1, KDR and eNOS in FD-VECs; format: cell-based, human; details: compared to non-treated FD-VECs
# [3] = tested on: FD-VECs; experiment: Tube-like structure formation assay of FD-VECs; format: cell-based, human
# Protocol: FD-iPSC lines that were generated from fibroblasts of three FD patients with a GLA variant were used. A wild-type (WT) iPSC line derived from foreskin fibroblasts and a FD1 isogenic iPSC line were used as controls. Human iPSCs (hiPSCs) were maintained in mTeSR1 medium ([…] Technologies, Vancouver, Canada) on culture plates precoated with Corning Matrigel® hESC-Qualified Matrix. The cells were maintained at 37°C in a 5% CO2 incubator. After 7 days of culture, hiPSC colonies were split at a 1:50 ratio using accutase solution (eBioscience, San Diego, CA, USA) and incubated under the same culture conditions for expansion.
# Human iPSCs were differentiated into VECs as described previously, with further optimization. Briefly, hiPSCs were transferred to dishes coated with Matrigel® (BD Biosciences, Franklin Lakes, NJ, USA) and cultured for 2 days in mTESR1 medium ([…] Technologies) at 37°C and 5% CO2. Subsequently, the cells were cultured for a further 2 days in VEC medium (RPMI (HyClone, Logan, MI, USA), 1% B27 (Invitrogen, Carlsbad, CA, USA), and penicillin/streptomycin (Invitrogen)) supplemented with 50 ng/mL Activin A (PeproTech, Rocky Hill, NJ, USA) and 20 ng/mL BMP4 (PeproTech), and 3 µM CHIR990921 (Sigma, St. Louis, MO) at 37°C and 5% CO2. Next, the cells were cultured for 3 days in VEC medium containing 50 ng/mL VEGF-A (PeproTech) and 50 ng/mL bFGF, at 37°C and 5% CO2. To differentiate the vascular progenitors into VECs, CD31^+ cells were sorted from the differentiated cells by MACS using CD31^+ Dynabeads (Thermo Fisher Scientific, Waltham, MA, USA). The CD31^+ cells were transferred to gelatin-coated plates and incubated for 3 days in EGM-2 medium (Lonza, Basel, Switzerland) supplemented with 100 ng/mL VEGF-A and 50 ng/mL bFGF, at 37°C and 5% CO2. The culture medium was changed daily. Finally, the vascular progenitors were cultured in EGM-2 medium without growth factors for 4 days with daily medium change.
# To screen for clinical compounds that could rescue FD-VEC dysfunction, VECs were seeded onto gelatin-coated 96-well plates (SPL Life Sciences, Pocheon, Korea) at a density of 3 × 10^3 cells/cm^2 and maintained in EGM-2 medium without growth factors for 24 hours. […] Subsequently, it was examined whether FD-VECs treated with each selected compound could form tube-like structures on Matrigel®-coated plates. The tube-like structure forming assay was repeated at least three times using different concentrations of each selected compound (0.5, 1, and 5 µM).
# FD-VECs were dissociated after treatment with Accutase (eBioscience) at 37°C for 5 min. Dissociated cells (1 × 10^4) were transferred to Matrigel® matrix (BD Biosciences) in EGM-2 medium supplemented with 100 ng/mL VEGF-A, and then incubated at 37°C and 5% CO2 for 24 hours. Images of the vascular tube-like structures were taken using an inverted microscope (Olympus, Tokyo, Japan). Total tube lengths were measured using ImageJ software, which was freely provided by the […], and its Angiogenesis Analyzer plugin (Carpentier, 2012).
# [4] = tested on: Fabry disease mice (Gla^-/-); experiment: Kidney tissue analysis of Gla^-/- mice after co-administration; format: in vivo; details: fasudil 30 mg/kg daily oral; enzyme 1 mg/kg i.v. once a week; 6 months
# [5] = tested on: Fabry disease mice (Gla^-/-); experiment: Sweat secretion of Gla^-/- mice after co-administration; format: in vivo; details: fasudil 30 mg/kg daily oral; enzyme 1 mg/kg i.v. once a week; 6 months
# [6] = tested on: Fabry disease mice (Gla^-/-); experiment: Hot plate test (55°C) of Gla^-/- mice after co-administration; format: in vivo; details: hot plate 55°C; fasudil 30 mg/kg daily oral; enzyme 1 mg/kg i.v. once a week; 6 months
# Protocol: Many Fabry disease patients suffer from peripheral neuropathic pain, and one way to indirectly assess the pain in laboratory animals is to measure the time it takes for the hind limbs to jump on a hot plate at 55°C.
# [7] = tested on: FD mice (Gla^-/-/TSP1^Tg); experiment: Echocardiography of FD mice after oral administration; format: in vivo; details: 10 or 30 mg/kg/day for 6 months
# Excerpt: Therefore, the present inventors hypothesized that Gla^-/- mice expressing human TSP1 (Gla^-/-/TSP1^Tg; hereinafter referred to as FD mice) might be an effective animal model for studying FD-related vasculopathy. […] LVH is known to occur in up to half of males and one-third of females in FD patients (Kampmann C, Linhart A, Baehner F, Palecek T, Wiethoff CM, Miebach E, Whybra C, Gal A, Bultas J, Beck M (2008) Onset and progression of the Anderson-Fabry disease related cardiomyopathy. International Journal of Cardiology 130: 367-73). Thus, the present inventors investigated the cardiac functionality in each mouse group via echocardiography.
# To this end, FD-mice (Gla^-/-/TSP1^Tg) were produced by crossing transgenic mice expressing human TSP1 with Gla^-/- mice. The produced mice were then orally administered lomerizine (10 or 30 mg/kg/day) for 6 months (FIG. 18A).
# [8] = tested on: Fabry disease mice (Gla^-/-); experiment: Echocardiography of Gla^-/- mice after co-administration; format: in vivo; details: fasudil 30 mg/kg daily oral; enzyme 1 mg/kg i.v. once a week; 6 months
# [9] = tested on: FD mice (Gla^-/-/TSP1^Tg); experiment: Sweat secretion analysis in FD mice; format: in vivo; details: oral, 10 or 30 mg/kg/day for 6 months
# [10] = tested on: FD-VECs; experiment: Extracellular flux analysis of oxygen consumption rate (OCR); format: cell-based, human
# [11] = tested on: FD mice (Gla^-/-/TSP1^Tg); experiment: Immunohistochemistry and Western blot of renal tissues of FD mice; format: in vivo; details: oral administration
# [12] = tested on: FD-VECs; experiment: ROS fluorescence intensity in FD-VECs; format: cell-based, human
# [13] = tested on: EndMT of FD-VECs; experiment: EndMT-associated factors in FD-VECs (Western blot, immunostaining); format: cell-based, human
# Excerpt: Hyperactive SMAD2 signaling induces EndMT in VECs, thereby reducing angiogenic functionality. […] Before drug treatment, the present inventors performed bulk RNA sequencing of FD-VECs and FD(c)-VECs to examine the mechanism underlying the defective vasculopathy of FD-VECs.
structure (smiles),measurement,setting,value
O=S(=O)(c1cccc2cnccc12)N1CCCNCC1 [fasudil],heat insensitivity (paw withdrawal latency),[1],significantly alleviated
same,levels of KDR and eNOS,[2],increased
same,levels of p-SMAD2 and TSP1,[2],reduced
same,tube length of FD-VECs,"[3]; 5 µM, compared to the untreated group",significantly increased
same,tube formation ability,"[3]; 0.5, 1, and 5 µM, versus DMSO control",relatively higher tube formation ability; also recorded: most effective
same,optimal concentration,[3]; based on tube formation of FD-VECs,5 µM
same,tube formation ability of VECs derived from FD-iPSC lines with distinct GLA mutations,[3]; fasudil at 5 µM,enhanced
same,expression of fibrosis-related marker (COL1A1) and inflammation markers (LCN2 and F4/80) in kidney tissues,[4],reduced
same,sweating,[5],reduced
same,latency (time for hind limbs to jump on hot plate),[6],slight decrease in latency
same,LV mass/BW,[7],significantly reduced
same,"cardiac ejection fraction, fractional shortening, and cardiac output",[7],enhanced
same,cardiac function,[8],improvement in cardiac function
same,left ventricular hypertrophy,[8],significant reduction
same,anhidrosis (number of sweat spots),[9],significantly alleviated
same,"basal respiration, ATP production, or spare capacity",[10],did not alter
same,maximal respiration,[10],partially reduced
same,protein levels of fibrotic and inflammatory markers in renal tissues,[11]; Western blot,confirmed by Western blot analysis
same,CD31+ACTA2+ cells in renal tissues,[11]; immunohistochemistry,reduced
same,expression levels of F4/80 and LCN2 in renal tissues,[11]; immunohistochemistry,reduced
same,expression of COL1A1 in renal tissues,[11]; immunohistochemistry,downregulated
same,level of ROS,[12],reduced the level of ROS to that seen in WT-VECs and FD(c)-VECs
same,"levels of mesenchymal-related markers (COL1A1, ACTA2, SNAI1, and TWIST)",[13]; Western blot,reduced
same,protein level of CD31,[13]; Western blot,increased
same,"fluorescence intensities of EndMT-related factors (ACTA2, SNAI1, COL1A1)",[13]; immunostaining,reduced
